Measured values taken from ChEMBL document CHEMBL1201862, “PubChem BioAssay data set” (2004).
The source made the active and inactive calls.

Tests used:
[1] = target: T1, DNA repair and recombination protein RAD54-like (Homo sapiens, UniProt Q92698); experiment: inhibitors of human RAD54 branch migration, confirmation, biochemical, fluorescence, cherry-picked samples, dose series (AID 651657); assay type: functional
T1 sequence (Q92698 whole entry): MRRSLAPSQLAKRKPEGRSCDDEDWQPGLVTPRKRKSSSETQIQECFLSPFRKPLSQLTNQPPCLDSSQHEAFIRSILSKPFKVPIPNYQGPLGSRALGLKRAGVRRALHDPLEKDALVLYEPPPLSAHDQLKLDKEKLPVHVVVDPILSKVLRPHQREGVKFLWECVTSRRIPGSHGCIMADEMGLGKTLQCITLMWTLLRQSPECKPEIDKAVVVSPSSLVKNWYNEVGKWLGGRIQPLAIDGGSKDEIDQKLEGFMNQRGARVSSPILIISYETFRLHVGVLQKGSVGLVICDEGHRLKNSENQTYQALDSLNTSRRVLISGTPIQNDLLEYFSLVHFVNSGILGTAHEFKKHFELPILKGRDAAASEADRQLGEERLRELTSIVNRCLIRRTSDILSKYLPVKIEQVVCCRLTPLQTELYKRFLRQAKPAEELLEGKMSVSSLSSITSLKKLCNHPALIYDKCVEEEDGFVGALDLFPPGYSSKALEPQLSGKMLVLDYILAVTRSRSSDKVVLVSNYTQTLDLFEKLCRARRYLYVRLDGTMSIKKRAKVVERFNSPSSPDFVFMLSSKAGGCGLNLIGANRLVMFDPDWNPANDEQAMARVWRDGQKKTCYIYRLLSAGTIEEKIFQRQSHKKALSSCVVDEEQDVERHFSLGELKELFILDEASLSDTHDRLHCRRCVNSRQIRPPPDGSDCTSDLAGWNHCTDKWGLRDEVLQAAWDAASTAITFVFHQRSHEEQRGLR

Cytochrome P450 2D6 = Cytochrome P450 2D6 (Homo sapiens, UniProt P10635);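 note: CYP2D6 member of a cytochrome P450 panel assay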
[2] = Shn3 3'UTR reporter inhibitors, dose response, cell-based, Clone20 osteoblasts, firefly luciferase, cherry-picked (AID 624132); assay type: functional;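 note: firefly luciferase luminescence from reporter carrying the Shn3 3'UTR in osteoblasts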
[3] = control 3'UTR Renilla luciferase suppression, dose response, counter-screen for Shn3 inhibitor project, cell-based, Clone20-Shn3RL, cherry-picked (AID 624133); assay type: functional
Protein Wnt-3a = Protein Wnt-3a (Mus musculus, UniProt P27467); experiment: Wnt3a-driven reporter signaling inhibition, dose response, selectivity assay for Gli-SUFU antagonist project, Wnt-LIGHT cells, luminescence (AID 651570); assay type: functional; settings: read-out: IC50_Mean;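 note: Wnt-LIGHT reporter cells stimulated with conditioned medium from Wnt3a-producing cells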
[4] = target: Glucose-6-phosphate 1-dehydrogenase (Homo sapiens, UniProt P11413); experiment: human G6PD enzyme inhibitors, dose response, selectivity assay for P. falciparum G6PD inhibitor project, biochemical, fluorescence (AID 504792); assay type: functional
[5] = insulin promoter down-regulators in MIN6 cells, imaging, high-content screening, mouse beta cells (AID 1628); assay type: functional
[6] = cytotoxicity in MIN6 insulinoma cells, dose response, cytotoxicity control, cell-based, mouse insulinoma (AID 2122); assay type: functional;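 note: confirmatory high-throughput counterscreen run to flag cytotoxic compounds; mouse MIN-6 beta cells carrying an insulin promoter eGFP reporter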
[7] = inhibitors of intracellular T. cruzi replication, confirmation, NIH3T3 host cells, beta-gal luminescence (AID 2044); assay type: functional, cell-based;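 note: intracellular parasites grown in NIH/3T3 mouse fibroblasts as host cells; luminescent beta-galactosidase reporter signal from transgenic T. cruzi replicating inside host cells; inhibitors lower the luminescence signal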
[8] = cytotoxicity toward NIH3T3 fibroblasts, dose response, counter-screen, cell-based, ATP luminescence, mouse fibroblasts (AID 2010); assay type: functional;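 note: cells exposed to compound for about 90 hours before reading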
INS1 = experiment: beta cell apoptosis inhibitors, cytokine rescue, dose response, luminescence, retest (AID 449756); assay type: functional, cell-based; settings: Rattus norvegicus;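 note: cell death triggered by IL-1 beta plus TNF-alpha plus IFN-gamma mixture; protective hits raise ATP signal compared with cytokine alone wells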
[9] = target: Dual specificity tyrosine-phosphorylation-regulated kinase 1A (Rattus norvegicus, UniProt Q63470); assay type: biochemical, Homo sapiens
[10] = target: E3 ubiquitin-protein ligase Mdm2 (Homo sapiens, UniProt Q00987); experiment: enhancers of MDM2-luciferase reporter signal, concentration-effect titration, project on inhibitors of MDM2 ubiquitin ligase, cellular assay, luminescent readout, 384-well plate format (AID 1394); assay type: functional;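 note: MDM2 E3 inhibitors raise luminescence so EC50 is for signal enhancement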
[11] = target: T2, Microphthalmia-associated transcription factor (Homo sapiens, UniProt O75030); experiment: TRPM1 promoter luciferase signal decrease, dose response, MITF inhibitor project, cell-based, SK-MEL-5, cherry-picked, set 3 (AID 493073); assay type: functional
T2 sequence (O75030 whole entry): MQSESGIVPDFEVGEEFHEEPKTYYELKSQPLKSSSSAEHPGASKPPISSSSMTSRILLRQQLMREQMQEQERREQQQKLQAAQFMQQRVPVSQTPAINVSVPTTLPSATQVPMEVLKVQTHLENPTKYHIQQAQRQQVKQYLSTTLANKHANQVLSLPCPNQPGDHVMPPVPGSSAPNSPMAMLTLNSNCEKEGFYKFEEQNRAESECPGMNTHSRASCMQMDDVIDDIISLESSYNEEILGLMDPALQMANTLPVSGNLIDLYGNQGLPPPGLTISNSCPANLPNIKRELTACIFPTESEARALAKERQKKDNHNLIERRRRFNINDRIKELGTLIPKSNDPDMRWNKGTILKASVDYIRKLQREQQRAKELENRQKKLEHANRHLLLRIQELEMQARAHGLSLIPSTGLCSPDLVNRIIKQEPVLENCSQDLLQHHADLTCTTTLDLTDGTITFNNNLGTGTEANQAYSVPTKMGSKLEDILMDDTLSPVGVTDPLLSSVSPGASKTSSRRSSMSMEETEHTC

[12] = target: T3, RNA-binding protein pos-1 (Caenorhabditis elegans, UniProt G5EF15); experiment: inhibitors of POS-1/mex-3 RNA binding, dose response, biochemical, fluorescence polarization (AID 1964);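 note: purified POS-1 fused to maltose binding protein made in E. coli; potency of compounds blocking POS-1 binding to fluorescent RNA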
T3 sequence (G5EF15 whole entry): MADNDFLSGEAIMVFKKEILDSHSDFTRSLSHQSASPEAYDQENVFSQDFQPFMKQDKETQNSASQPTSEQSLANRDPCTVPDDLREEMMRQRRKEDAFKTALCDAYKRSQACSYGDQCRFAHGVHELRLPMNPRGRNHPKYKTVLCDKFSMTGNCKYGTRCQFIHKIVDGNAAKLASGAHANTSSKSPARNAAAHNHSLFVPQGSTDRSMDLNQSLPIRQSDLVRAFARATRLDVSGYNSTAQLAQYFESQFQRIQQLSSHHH

[13] = tested on: Streptococcus sp. 'group A'; experiment: growth inhibition of control SK(-) GAS strain, dose response, counter-screen for streptokinase expression inhibitor project, luminescence, kanamycin, BacTiterGlo, confirmation (AID 1900); assay type: functional, organism-based
[14] = target: T4, Zinc finger protein mex-5 (Caenorhabditis elegans, UniProt Q9XUB2); experiment: MEX-5/TCR-2 RNA interaction inhibitors, dose response, biochemical, C. elegans, fluorescence polarization (AID 1960)
T4 sequence (Q9XUB2 whole entry): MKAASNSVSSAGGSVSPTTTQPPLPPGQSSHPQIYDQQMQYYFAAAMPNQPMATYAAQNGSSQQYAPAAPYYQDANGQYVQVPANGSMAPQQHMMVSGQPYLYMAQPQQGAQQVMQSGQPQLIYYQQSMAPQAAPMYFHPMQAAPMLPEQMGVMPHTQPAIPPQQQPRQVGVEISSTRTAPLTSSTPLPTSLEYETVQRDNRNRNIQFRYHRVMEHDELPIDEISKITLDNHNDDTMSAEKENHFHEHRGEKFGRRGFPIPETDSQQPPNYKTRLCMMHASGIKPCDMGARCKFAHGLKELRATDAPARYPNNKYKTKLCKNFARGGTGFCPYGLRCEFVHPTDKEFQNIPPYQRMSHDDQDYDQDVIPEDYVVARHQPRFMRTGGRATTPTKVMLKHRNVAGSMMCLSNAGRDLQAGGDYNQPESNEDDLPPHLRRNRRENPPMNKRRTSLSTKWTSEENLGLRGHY

Streptococcus = experiment: Group A Streptococcus viability loss, dose response, counter-screen for streptokinase expression inhibitor project, luminescence, BacTiterGlo (AID 1915); assay type: functional, organism-based;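 note: potency for reduction of bacterial viability or growth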
[15] = target: T5, Probable nicotinate-nucleotide adenylyltransferase (Staphylococcus aureus (strain N315), UniProt P65502); assay type: functional, Staphylococcus aureus subsp. aureus N315;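 for IC50 Mean: confirmatory dose-response retesting of NadD inhibitor hits first found in an ultra-high-throughput screen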
[16] = target: T5, Probable nicotinate-nucleotide adenylyltransferase; assay type: functional, Staphylococcus aureus subsp. aureus N315; settings: read-out: IC50_Mean
[17] = target: T6, Mannose-6-phosphate isomerase (Homo sapiens, UniProt P34949); experiment: PMI enzyme inhibitors, confirmation, biochemical, fluorescence intensity (AID 1535)
T6 sequence (P34949 whole entry): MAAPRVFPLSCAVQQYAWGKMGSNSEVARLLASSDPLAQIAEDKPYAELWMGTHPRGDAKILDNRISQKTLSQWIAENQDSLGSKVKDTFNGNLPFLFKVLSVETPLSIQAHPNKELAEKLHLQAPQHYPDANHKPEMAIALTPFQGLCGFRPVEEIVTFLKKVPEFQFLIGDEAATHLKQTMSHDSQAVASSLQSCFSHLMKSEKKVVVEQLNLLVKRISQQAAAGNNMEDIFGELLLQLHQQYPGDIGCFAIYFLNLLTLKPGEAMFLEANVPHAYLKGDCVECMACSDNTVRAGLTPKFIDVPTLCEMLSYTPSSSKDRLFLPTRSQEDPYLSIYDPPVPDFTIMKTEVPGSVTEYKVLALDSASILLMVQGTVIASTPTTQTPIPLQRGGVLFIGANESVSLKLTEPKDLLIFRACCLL

[18] = microbe, parasite or virus in culture; assay type: functional; settings: Mycobacterium tuberculosis
Cytochrome P450 3A4 = Cytochrome P450 3A4 (Homo sapiens, UniProt P08684);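 note: CYP3A4 tested as one member of a cytochrome P450 panel screen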
[19] = target: DNA dC->dU-editing enzyme APOBEC-3G (Homo sapiens, UniProt Q9HC16); experiment: APOBEC3G deaminase inhibitors, SAR follow-up, biochemical, fluorescence, single-stranded DNA substrate (AID 602136); assay type: functional; settings: read-out: IC50_Mean
[20] = target: DNA dC->dU-editing enzyme APOBEC-3A (Homo sapiens, UniProt P31941); experiment: SAR analysis of small molecule inhibitors of APOBEC3A DNA Deaminase via a fluorescence-based single-stranded DNA deaminase assay.; assay type: functional; settings: read-out: IC50_Mean
HEK293 = experiment: inhibitors of LMP1-driven NF-kB reporter, dose response, cell-based, HEK293, luciferase, cherry-pick (AID 588343); assay type: functional; settings: Homo sapiens

DNA dC->dU-editing enzyme APOBEC-3A, sequence (P31941 whole entry): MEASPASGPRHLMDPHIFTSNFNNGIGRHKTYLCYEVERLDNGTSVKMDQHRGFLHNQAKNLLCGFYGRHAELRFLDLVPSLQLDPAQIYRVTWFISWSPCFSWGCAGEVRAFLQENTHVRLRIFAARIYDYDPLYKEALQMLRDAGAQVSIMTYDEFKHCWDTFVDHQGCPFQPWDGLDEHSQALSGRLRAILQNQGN
Protein Wnt-3a, sequence (P27467 whole entry): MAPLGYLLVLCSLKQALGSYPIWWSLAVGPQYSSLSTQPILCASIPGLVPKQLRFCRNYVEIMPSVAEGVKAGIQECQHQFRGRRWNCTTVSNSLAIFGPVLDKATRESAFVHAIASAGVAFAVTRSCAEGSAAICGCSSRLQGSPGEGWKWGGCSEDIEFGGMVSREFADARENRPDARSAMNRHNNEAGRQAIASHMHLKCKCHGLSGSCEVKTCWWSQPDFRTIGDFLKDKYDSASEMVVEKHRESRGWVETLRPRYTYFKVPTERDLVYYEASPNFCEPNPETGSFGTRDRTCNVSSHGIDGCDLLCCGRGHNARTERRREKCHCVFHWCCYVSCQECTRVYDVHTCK
T5 sequence (P65502 whole entry): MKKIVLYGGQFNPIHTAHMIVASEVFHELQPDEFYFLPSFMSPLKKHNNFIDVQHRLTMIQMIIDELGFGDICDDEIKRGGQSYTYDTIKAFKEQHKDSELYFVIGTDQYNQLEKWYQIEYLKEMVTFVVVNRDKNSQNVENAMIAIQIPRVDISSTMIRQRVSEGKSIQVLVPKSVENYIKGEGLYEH
Cytochrome P450 2D6, sequence (P10635 whole entry): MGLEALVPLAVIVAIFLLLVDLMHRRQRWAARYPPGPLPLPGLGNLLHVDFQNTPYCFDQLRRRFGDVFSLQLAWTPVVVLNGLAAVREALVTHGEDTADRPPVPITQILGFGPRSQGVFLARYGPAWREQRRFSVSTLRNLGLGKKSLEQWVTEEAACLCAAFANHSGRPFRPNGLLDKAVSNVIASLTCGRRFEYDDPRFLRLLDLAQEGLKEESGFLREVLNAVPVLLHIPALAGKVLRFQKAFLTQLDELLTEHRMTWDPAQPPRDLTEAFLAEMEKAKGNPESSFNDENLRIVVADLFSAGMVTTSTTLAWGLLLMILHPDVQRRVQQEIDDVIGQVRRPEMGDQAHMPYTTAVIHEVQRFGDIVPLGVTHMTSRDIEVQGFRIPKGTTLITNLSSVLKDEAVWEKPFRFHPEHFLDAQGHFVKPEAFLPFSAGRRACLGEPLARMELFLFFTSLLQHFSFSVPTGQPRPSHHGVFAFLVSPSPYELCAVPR
DNA dC->dU-editing enzyme APOBEC-3G, sequence (Q9HC16 whole entry): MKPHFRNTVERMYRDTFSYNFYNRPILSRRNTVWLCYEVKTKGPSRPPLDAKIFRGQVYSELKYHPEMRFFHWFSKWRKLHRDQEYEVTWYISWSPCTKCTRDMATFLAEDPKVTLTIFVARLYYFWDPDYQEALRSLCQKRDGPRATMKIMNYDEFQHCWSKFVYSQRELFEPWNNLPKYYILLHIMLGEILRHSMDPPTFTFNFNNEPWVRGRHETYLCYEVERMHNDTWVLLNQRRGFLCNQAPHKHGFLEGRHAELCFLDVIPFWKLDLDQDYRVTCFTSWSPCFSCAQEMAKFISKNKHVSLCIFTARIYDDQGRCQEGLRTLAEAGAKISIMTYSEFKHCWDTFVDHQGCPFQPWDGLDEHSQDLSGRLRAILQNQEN
Glucose-6-phosphate 1-dehydrogenase, sequence (P11413 whole entry): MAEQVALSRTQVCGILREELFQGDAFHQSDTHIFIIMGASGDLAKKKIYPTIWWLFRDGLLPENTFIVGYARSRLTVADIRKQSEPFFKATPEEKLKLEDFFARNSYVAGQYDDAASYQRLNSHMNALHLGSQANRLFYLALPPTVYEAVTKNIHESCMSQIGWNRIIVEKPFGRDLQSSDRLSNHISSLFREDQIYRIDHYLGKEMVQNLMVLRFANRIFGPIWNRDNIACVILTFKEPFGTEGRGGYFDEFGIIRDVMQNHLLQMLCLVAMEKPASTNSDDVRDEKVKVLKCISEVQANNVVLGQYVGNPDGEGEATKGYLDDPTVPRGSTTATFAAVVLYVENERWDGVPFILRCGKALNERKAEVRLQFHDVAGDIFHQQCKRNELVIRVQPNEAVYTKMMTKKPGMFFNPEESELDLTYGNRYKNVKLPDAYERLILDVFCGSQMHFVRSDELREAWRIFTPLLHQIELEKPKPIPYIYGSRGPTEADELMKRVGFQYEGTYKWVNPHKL
E3 ubiquitin-protein ligase Mdm2, sequence (Q00987 whole entry): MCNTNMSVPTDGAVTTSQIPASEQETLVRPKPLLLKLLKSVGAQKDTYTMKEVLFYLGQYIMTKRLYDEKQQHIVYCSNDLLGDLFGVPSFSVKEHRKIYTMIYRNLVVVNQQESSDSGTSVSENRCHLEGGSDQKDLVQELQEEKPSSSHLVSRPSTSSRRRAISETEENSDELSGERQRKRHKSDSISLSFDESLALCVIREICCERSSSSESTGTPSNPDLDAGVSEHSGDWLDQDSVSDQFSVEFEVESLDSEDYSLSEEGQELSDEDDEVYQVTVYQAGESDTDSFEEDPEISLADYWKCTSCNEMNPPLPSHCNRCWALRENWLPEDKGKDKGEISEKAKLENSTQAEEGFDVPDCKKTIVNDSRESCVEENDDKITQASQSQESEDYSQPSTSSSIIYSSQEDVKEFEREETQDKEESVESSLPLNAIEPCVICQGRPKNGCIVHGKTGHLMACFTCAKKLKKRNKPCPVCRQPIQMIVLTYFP
Cytochrome P450 3A4, sequence (P08684 whole entry): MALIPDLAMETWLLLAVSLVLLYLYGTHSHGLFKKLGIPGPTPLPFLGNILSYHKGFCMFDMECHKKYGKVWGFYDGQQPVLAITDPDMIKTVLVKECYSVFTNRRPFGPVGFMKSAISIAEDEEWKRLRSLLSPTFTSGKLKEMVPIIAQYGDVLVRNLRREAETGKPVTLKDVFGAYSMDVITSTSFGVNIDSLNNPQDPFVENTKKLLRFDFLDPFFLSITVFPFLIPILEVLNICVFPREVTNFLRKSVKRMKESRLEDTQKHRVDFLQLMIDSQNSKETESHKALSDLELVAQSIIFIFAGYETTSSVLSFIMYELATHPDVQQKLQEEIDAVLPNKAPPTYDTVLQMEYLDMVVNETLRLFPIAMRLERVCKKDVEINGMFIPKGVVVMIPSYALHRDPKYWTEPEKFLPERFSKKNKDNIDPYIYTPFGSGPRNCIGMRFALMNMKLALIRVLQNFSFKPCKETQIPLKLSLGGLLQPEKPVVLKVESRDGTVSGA

Compound: Cc1ccc(-c2nc(NCCCO)c3ccccc3n2)cc1
- AC50 [1]: 79.6 µM (active)

Compound: O=C1CN(/N=C\c2ccc(-c3ccc([N+](=O)[O-])cc3)o2)C([O-])=N1.[Na+]
- AC50 (Cytochrome P450 2D6): inactive

Compound: CC(C)=CCC/C(C)=C/CNC(=O)C[C@H]1C[C@H](C(=O)N2CCOCC2)[C@@]2(C)c3[nH]c4cc(CCC(=O)N(C)C)ccc4c3CCN2C1=O
- AC50 [2]: 1.11 µM (active)
- AC50 [3]: 1.33 µM (active)
- IC50 (Protein Wnt-3a): 23.6 µM (inactive)

Compound: C[C@H](NC(=O)c1cc2c3ccccc3nc-2c[nH]1)C(=O)O
- IC50 [4]: > 80 µM (inactive)

Compound: O=C(Nc1nc2ccc([N+](=O)[O-])cc2s1)c1ccc(S(=O)(=O)N2CCCc3ccccc32)cc1
- IC50 [5]: 2.16 µM (active)
- IC50 [6]: 1.46 µM (active)
- EC50 [7]: 2.01 µM (active)
- EC50 [8]: > 30 µM (not active)
- AC50 (INS1): 3.34 µM (active)

Compound: N=c1oc2cc(O)ccc2cc1C(=O)Nc1ccc(F)cc1
- AC50 [9]: 14.5 µM (active)

Compound: O=C(c1ccc(C(F)(F)F)cc1)C1CCCN(Cc2ccncc2)C1 (configuration not stated)
- IC50 (Protein Wnt-3a): 5.15 µM (active)

Compound: CO[C@@H]1COC(=O)CCC[C@@H](C)[C@H](OC)COC(=O)CCC[C@H]1C
- AC50 (Cytochrome P450 2D6): inconclusive

Compound: Cc1n[nH]c(NC(=O)/C=C/c2ccccc2)n1
- EC50 [10]: 1.09 µM (active)
- AC50 [11]: 17.8 µM (active)

Compound: CCCCCCCn1c(=N)n(CC(O)c2ccco2)c2ccccc21 (configuration not stated)
- IC50 [5]: 1.79 µM (active)
- IC50 [6]: 3.55 µM (active)

Compound: Cc1ccc2sc(NNC(=O)c3cc(=O)c4ccccc4o3)nc2c1C
- EC50 [12]: > 300 µM (not active)
- EC50 [13]: 0.744 µM (active)
- EC50 [14]: > 300 µM (inconclusive)
- EC50 (Streptococcus): 2.5 µM (active)
- IC50 [15]: 4.17 µM (active)
- IC50 [16]: 17.7 µM (active)

Compound: NCCc1cc(O)c(O)cc1O
- IC50 [4]: > 80 µM (inactive)

Compound: O=C(N[C@@H]1C/C=C\C[C@@H](CC(=O)N(CCO)Cc2ccccc2)C(=O)NC[C@H](c2ccccc2)OC1=O)OCC1c2ccccc2-c2ccccc21
- AC50 [2]: 7.04 µM (active)
- AC50 [3]: 4.32 µM (active)
- IC50 (Protein Wnt-3a): 8.93 µM (active)

Compound: Clc1ncccc1/N=c1\ssnc1Cl
- IC50 [17]: 9.88 µM (active)

Compound: Cc1ccc(C(=O)O/N=C\c2ccc(N3CCCCC3)c([N+](=O)[O-])c2)cc1
- CC50 [18]: > 40 µM (active)
- AC50 (Cytochrome P450 3A4): 22.4 µM (inconclusive)
- AC50 (Cytochrome P450 2D6): inconclusive

Compound: Cc1ccc(CN(C)C(=O)CSc2nnc(-c3ccc(F)cc3)n2C)o1
- IC50 [19]: > 99 µM (inactive)
- IC50 [20]: > 99 µM (inactive)

Compound: CCCCN1CCc2cc(/C=C3\C(=O)NC(=S)N(C4CC4)C3=O)ccc21
- IC50 [19]: 68.2 µM (inactive)
- IC50 [20]: 57.1 µM (inactive)

Compound: O=[N+]([O-])c1ccc(/C=N/Nc2ccnc3cc(Cl)ccc23)o1
- AC50 [11]: 15.3 µM (active)
- AC50 (INS1): 9.06 µM (active)

Compound: COc1ccc(-c2nnc(SCC(=O)N(C)Cc3cccs3)[nH]2)cc1
- IC50 [19]: > 99 µM (inactive)
- IC50 [20]: > 99 µM (inactive)

Compound: COc1ccc2c(c1)CCc1c[nH]nc1-2
- AC50 [9]: > 120 µM (inactive)

Compound: O=C1C(/C=N/Cc2ccncc2)=C(O)c2ccccc21
- AC50 [9]: 7.11 µM (active)

Compound: CCc1nnc(NS(=O)(=O)c2ccc(/N=C/c3c(C)nn(-c4ccc(Cl)cc4)c3O)cc2)s1
- IC50 [15]: 6.87 µM (active)
- IC50 [16]: 25.5 µM (active)

Compound: Cc1cc(O)nc(N=N/C(=N/Nc2ccccc2C)c2ccccc2)n1
- IC50 [5]: 1.46 µM (active)
- IC50 [6]: 1.36 µM (active)
- AC50 (HEK293): 4.66 µM (active)
